# Test results as given in US20100298141A1, “SUBSTITUTED PYRIDINE N-OXIDE HERBICIDES” (E. I. DU PONT DE NEMOURS AND COMPANY, priority 2007, published 2010).
# Assays:
# [1] = test system: eastern black nightshade; experiment: Test C pre-/postemergence test; type: in vivo, Solanum ptycanthum; conditions: Preemergence
# How it was run: (§1)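 Compounds in a non-phytotoxic solvent with surfactant applied preemergence to seeded pots and, at the same time, postemergence to plants 2–18 cm tall (1- to 4-leaf stage). Paddy tests: pots flooded to 3 cm, compound applied into the water, depth held throughout.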
# [2] = test system: velvetleaf; experiment: Test A pre-/postemergence greenhouse test; type: in vivo, Abutilon theophrasti; conditions: for Velvetleaf plant response rating: 0 to 100 scale
# How it was run: (§2)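 Seeds sown in a loam soil–sand blend got a preemergence directed soil spray of compound in a non-phytotoxic solvent mixture containing surfactant. Postemergence sprays of the same formulation went at the same time onto plants 2–10 cm tall at the one- to two-leaf stage. Injury was scored visually against untreated controls after about ten days in the greenhouse.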
# [3] = test system: giant foxtail; experiment: Test C pre-/postemergence test; type: in vivo, Setaria faberii; conditions: Preemergence
# How it was run: as §1
# [4] = test system: johnsongrass; experiment: Test C pre-/postemergence test; type: in vivo, Sorghum halepense; conditions: Preemergence
# How it was run: as §1
# [5] = test system: velvetleaf; experiment: Test C pre-/postemergence test; type: in vivo, Abutilon theophrasti; conditions: Preemergence
# How it was run: as §1
# [6] = test system: wild oat; experiment: Test C pre-/postemergence test; type: in vivo, Avena fatua; conditions: Preemergence
# How it was run: as §1
# [7] = test system: corn; experiment: Test A pre-/postemergence greenhouse test; type: in vivo, Zea mays; conditions: for Corn plant response rating: 0 to 100 scale
# How it was run: as §2
# [8] = test system: common ragweed; experiment: Test C pre-/postemergence test; type: in vivo, Ambrosia elation; conditions: Preemergence
# How it was run: as §1
# [9] = test system: Goosegrass; experiment: Test C pre-/postemergence test; type: in vivo, Eleusin indica; conditions: Preemergence
# How it was run: as §1
# [10] = test system: duck salad; experiment: Test C flooded paddy test; type: in vivo, Heteranthera limosa; conditions: Flood
# How it was run: (§3)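 Ratings were visual and made relative to untreated controls after 13 to 15 greenhouse days.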
# [11] = test system: barnyardgrass; experiment: Test C flooded paddy test; type: in vivo, Echinochloa crus-galli; conditions: Flood
# How it was run: as §3
# [12] = test system: redroot pigweed; experiment: Test A pre-/postemergence greenhouse test; type: in vivo, Amaranthus retroflexus; conditions: for Pigweed plant response rating: 0 to 100 scale
# How it was run: as §2
# [13] = test system: Surinam grass; experiment: Test C pre-/postemergence test; type: in vivo, Brachiaria decumbens; conditions: Preemergence
# How it was run: as §1
# [14] = test system: lambsquarters; experiment: Test C pre-/postemergence test; type: in vivo, Chenopodium album; conditions: Preemergence
# How it was run: as §1
# [15] = test system: bermudagrass; experiment: Test C pre-/postemergence test; type: in vivo, Cynodon dactylon
# How it was run: as §1
# [16] = test system: wheat; experiment: Test A pre-/postemergence greenhouse test; type: in vivo, Triticum aestivum; conditions: for Wheat plant response rating: 0 to 100 scale
# How it was run: as §2
# [17] = test system: rice; experiment: Test C flooded paddy test; type: in vivo, Oryza sativa; conditions: Flood
# How it was run: as §3
# [18] = test system: giant foxtail; experiment: Test A pre-/postemergence greenhouse test; type: in vivo, Setaria faberi; conditions: for Foxtail, Giant plant response rating: 0 to 100 scale
# How it was run: as §2
# [19] = 31 g ai/ha, scale 0 to 100 (0 no effect, 100 complete control)
# [20] = Postemergence, 125 g ai/ha, 0 is no effect, 100 is complete control
# [21] = Postemergence, 500 g ai/ha, 0 is no effect, 100 is complete control
# [22] = Preemergence, 125 g ai/ha, 0 no effect, 100 complete control
# [23] = Preemergence, 500 g ai/ha, 0 to 100 scale where 0 is no effect and 100 is complete control
# [24] = 62 g ai/ha, scale 0 to 100, 0 no effect, 100 complete control, 13 to 15 days
# [25] = 125 g ai/ha, scale 0 to 100, 0 no effect, 100 complete control, 13 to 15 days
# [26] = 250 g ai/ha, scale 0 to 100 (0 no effect, 100 complete control)
smiles,measurement,setting,value
CC(c1c(C(F)(F)F)nn(C)c1OC(F)F)S(=O)(=O)c1cc(C(C)(C)C)cc[n+]1[O-] (racemic) [Compound 26],Nightshade plant response rating,"[1]; 62 g ai/ha, scale 0 to 100",100
same,"Plant response rating, Nightshade",[1]; [19],100
same,Velvetleaf plant response rating,[2]; [20],0
same,Velvetleaf plant response rating,[2]; [21],0
same,Velvetleaf plant response rating,[2]; [22],0
same,"Plant response rating, Velvetleaf",[2]; [23],70
same,"Foxtail, Giant plant response rating","[3]; 62 g ai/ha, scale 0 to 100",70
same,"Plant response rating, Foxtail, Giant",[3]; [19],40
same,"Plant response rating (0 to 100), Foxtail, Giant",[3]; 250 g ai/ha,75
same,Johnsongrass plant response rating,"[4]; 62 g ai/ha, scale 0 to 100",85
same,"Plant response rating (0 to 100), Johnsongrass",[4]; 250 g ai/ha,100
same,Velvetleaf plant response rating,"[5]; 62 g ai/ha, scale 0 to 100",80
same,"Plant response rating, Velvetleaf",[5]; [19],30
same,"Oat, Wild plant response rating","[6]; 62 g ai/ha, scale 0 to 100",60
same,"Plant response rating, Oat, Wild",[6]; [19],0
same,Corn plant response rating,[7]; [20],0
same,Corn plant response rating,[7]; [21],0
same,Corn plant response rating,[7]; [22],20
same,"Plant response rating, Corn",[7]; [23],50
same,Ragweed plant response rating,"[8]; 62 g ai/ha, scale 0 to 100",20
same,"Plant response rating, Ragweed",[8]; [19],0
same,Goosegrass plant response rating,"[9]; 62 g ai/ha, scale 0 to 100",98
same,"Plant response rating, Goosegrass",[9]; [19],90
same,"Plant response rating (0 to 100), Goosegrass",[9]; 250 g ai/ha,100
same,"Plant response rating, Ducksalad",[10]; [19],40
same,"Plant response rating, Ducksalad",[10]; [24],65
same,"Plant response rating, Ducksalad",[10]; [25],65
same,"Plant response rating, Ducksalad",[10]; [26],90
same,"Plant response rating, Barnyardgrass",[11]; [19],0
same,"Plant response rating, Barnyardgrass",[11]; [24],0
same,"Plant response rating, Barnyardgrass",[11]; [25],20
same,"Plant response rating, Barnyardgrass",[11]; [26],80
same,Pigweed plant response rating,[12]; [20],40
same,Pigweed plant response rating,[12]; [21],60
same,Pigweed plant response rating,[12]; [22],90
same,"Plant response rating, Pigweed",[12]; [23],100
same,Surinam Grass plant response rating,"[13]; 62 g ai/ha, scale 0 to 100",40
same,"Plant response rating, Surinam Grass",[13]; [19],10
same,Lambsquarters plant response rating,"[14]; 62 g ai/ha, scale 0 to 100",40
same,"Plant response rating, Lambsquarters",[14]; [19],0
same,Bermudagrass plant response rating,"[15]; 62 g ai/ha, Preemergence, scale 0 to 100 (0 no effect, 100 complete control)",100
same,"Plant response rating, Bermudagrass","[15]; Preemergence, 31 g ai/ha, scale 0 to 100 (0 no effect, 100 complete control)",80
same,"Plant response rating (0 to 100), Bermudagrass","[15]; Preemergence, 250 g ai/ha",100
same,Bermudagrass plant response rating,"[15]; preemergence, 125 g ai/ha, scale 0 (no effect) to 100 (complete control)",100
same,Wheat plant response rating,[16]; [20],10
same,Wheat plant response rating,[16]; [21],40
same,Wheat plant response rating,[16]; [22],20
same,"Plant response rating, Wheat",[16]; [23],70
same,"Plant response rating, Rice",[17]; [19],0
same,"Plant response rating, Rice",[17]; [24],0
same,"Plant response rating, Rice",[17]; [25],0
same,"Plant response rating, Rice",[17]; [26],80
same,"Foxtail, Giant plant response rating",[18]; [20],0
same,"Foxtail, Giant plant response rating",[18]; [21],30
same,"Foxtail, Giant plant response rating",[18]; [22],90
same,"Plant response rating, Foxtail, Giant",[18]; [23],100
